Results published in patent US10272117B2, “Methods of using an activator of cereblon for neural cell expansion and the treatment of central nervous system disorders” (Celgene Corporation, priority 2014, dated 2019).

Tested on: zebrafish embryos
Assay: Brain size, morphology and volume of zebrafish embryos (microscopy, MRI)
Type: in vivo
Conditions: for brain size: day 2; for volume of the whole brain compared to untreated fish: MRI; for head size compared to untreated embryos: microscopic pictures
Procedure: An aqueous solution of a 25-mer antisense morpholino oligonucleotide (AMO, Gene Tools, LLC) corresponding to the vicinity of the translation initiation codon in the cDNA sequence of the gene to be knocked down ([…] injection conditions were the same as those used for RNA) was injected into the embryos at the 1-cell stage. The sequence of AMO used for the CRBN gene knockdown is 5′-[…]-3′ (SEQ ID NO: 3). The sequence of AMO used for the Lhx2 gene knockdown is 5′-[…]-3′ (SEQ ID NO:4). The sequence of AMO used for the BRD7 gene knockdown is 5′-[…]-3′ (SEQ ID NO:1). The sequence of AMO used for the Ikaros gene knockdown is 5′-[…]-3′ (SEQ ID NO:2). […]
In order to examine the effect of antagonists of BRD7 on brain growth, BRD7 was knocked down or over-expressed in zebrafish embryos. Knockdown of BRD7 was performed by microinjection of antisense morpholino oligonucleotides (AMO). Overexpression of BRD7 was performed by microinjection of synthesized capped mRNA. AMO or capped mRNA was introduced into one-cell stage embryos by using a nitrogen gas-pressure microinjector IM 300 (Narishige). Conditions for microinjection were as follows: gas pressure was about 15 picosiemens; release period was about 30 to about 50 milliseconds per single injection; concentrations of AMOs and capped mRNA were 400 ng/μl and 250 ng/μl in nuclease-free water, respectively. Capped mRNAs were synthesized in vitro using the mMESSAGE mMachine® in vitro transcription kit (Ambion) from cDNAs cloned into pCS2+ plasmids.
The brains of the embryos were examined for morphology and volume by magnetic resonance imaging (MRI). FIGS. 9A, 9B, and 9C show microscopic pictures of the untreated, the BRD7-knockdown, and the BRD7-overexpressing zebrafish embryos, respectively. FIGS. 9D, 9E, and 9F show fluorescent microscopic pictures of the brain regions of the untreated, the BRD7-knockdown, and the BRD7-overexpressing zebrafish embryos, respectively. As shown in these figures, the BRD7-knockdown zebrafish embryos had bigger heads than the untreated embryos. […] The volume of the whole brain of the BRD7-knockdown fish was much bigger than that of the untreated fish, while for the BRD7-overexpressing fish, the brain volume was smaller.
In order to examine the effect of antagonists of Ikaros on brain growth, Ikaros was knocked down or over-expressed in zebrafish embryos. Knockdown of Ikaros was performed by microinjection of antisense morpholino oligonucleotides (AMO). Overexpression of Ikaros was performed by injection of synthesized capped mRNA. AMO or capped mRNA was introduced into one-cell stage embryos by using a nitrogen gas-pressure microinjector IM 300 (Narishige). Conditions for microinjection were as follows: gas pressure was about 15 picosiemens; release period was about 30 to about 50 milliseconds per single injection; concentrations of AMOs and capped mRNA were 400 ng/μl and 250 ng/μl in nuclease-free water, respectively. Capped mRNAs were synthesized in vitro using the mMESSAGE mMachine® in vitro transcription kit (Ambion) from cDNAs cloned into pCS2+ plasmids.
The brains of the embryos were examined for morphology and volume by magnetic resonance imaging (MRI). FIGS. 15A, 15B, and 15C show microscopic pictures of untreated, Ikaros-knockdown, and Ikaros-overexpressing zebrafish embryos at 55 hpf, respectively. As shown in these figures, the Ikaros-knockdown fish had bigger heads than the untreated embryos. […] The volume of the whole brain of the Ikaros-knockdown fish was much bigger than that of the untreated fish, while for the Ikaros-overexpressing fish, the brain volume was smaller.

Substance | brain size | brain development (22 hpf) | volume of the whole brain compared to untreated fish | head size compared to untreated embryos
5′-AGAGCTGTAGCTGGTTCCCCATTTC-3′ (all phosphorodiamidate morpholino (PMO)) [CRBN-knockdown, 25-mer antisense morpholino oligonucleotide (AMO) used for the CRBN gene knockdown, reference compound] | smaller brains |  |  | 
5′-TTCCTGTGCCTCCTCAGTCTCCATC-3′ (all phosphorodiamidate morpholino (PMO)) [Ikaros-knockdown, 25-mer antisense morpholino oligonucleotide (AMO) used for the Ikaros gene knockdown] | enlarged brains | macrocephaly | much bigger | bigger heads
5′-TGTGTTTCTTGTGCTTTTTGCCCAT-3′ (all phosphorodiamidate morpholino (PMO)) [BRD7-knockdown, 25-mer antisense morpholino oligonucleotide (AMO) used for the BRD7 gene knockdown] |  |  | much bigger | bigger heads
